Experimental data as given in US10351522B2, “Sulfonamide derivative and pharmaceutically acceptable acid addition salt thereof” (UNIVERSITY OF TSUKUBA, priority 2015, dated 2019).
Like-named read-outs stand apart in the source and are kept apart here.

Key:
[1] = target: T1, human OX2R (Homo sapiens, UniProt O43614); test: Agonist activity against OX2R: intracellular calcium (Fura-2AM, FDSS7000) in CHOOX2R cells; assay type: cell-based; details: relative to orexin-A as full agonist (100%)
T1 construct: expressed in transfected cells; host or cells: CHO (Chinese hamster ovary) cells, line CHOOX2R, co-expressing NFAT-luciferase
T1 sequence (O43614 1-444): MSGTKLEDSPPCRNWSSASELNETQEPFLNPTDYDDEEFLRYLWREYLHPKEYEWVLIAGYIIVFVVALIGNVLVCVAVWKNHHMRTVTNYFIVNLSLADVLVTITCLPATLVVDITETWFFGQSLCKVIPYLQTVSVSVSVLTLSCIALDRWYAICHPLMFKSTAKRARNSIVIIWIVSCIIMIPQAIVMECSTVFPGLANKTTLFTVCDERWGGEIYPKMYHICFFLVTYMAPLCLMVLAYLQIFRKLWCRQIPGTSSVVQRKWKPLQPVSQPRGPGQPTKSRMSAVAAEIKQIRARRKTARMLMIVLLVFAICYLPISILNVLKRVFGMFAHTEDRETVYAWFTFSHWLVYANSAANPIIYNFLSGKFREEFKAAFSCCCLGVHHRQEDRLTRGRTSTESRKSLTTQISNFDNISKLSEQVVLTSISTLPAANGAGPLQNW
Summary of the method: (§1)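 Response is agonist activity at 0.1, 1.0 or 10 μM compound as a percentage of the orexin-A full-agonist maximum, taken from 340/380 nm Fura-2 ratio changes. Each cell line is CHO constitutively expressing human OX1R or OX2R with NFAT-luciferase, dye-loaded 60 min with 5 μM Fura-2AM; compound range 10^−7–10^−5 M, 1% DMSO.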

[2] = test system: C57BL/6 wild-type mouse; test: Awakening effect on wild-type mouse by light period intraventricular administration (EEG/EMG hypnogram); assay type: in vivo; details: 10 nmol intraventricular at ZT6 (light period), hypnogram for 3 hr
Text: Awakening Effect on Wild-Type Mouse by Light Period Intraventricular Administration of the Compound of the Present Invention
As the experiment animal, C57BL/6 lineage wild-type mouse (male) was used. The mice before and after 9-week-old (±1 week) underwent surgery for embedding electroencephalogram electrodes into the skull (Bregma: X=1.5; Y=0.6, Lambda: X=1.5; Y=0) and inserting electromyogram electrodes into the trapezius muscle under isoflurane anesthesia. The mice for intraventricular administration also underwent cannula embedding into lateral cerebral ventricle (Bregma: X=−0.9; Y=−0.3). From two weeks thereafter, the administration and electroencephalogram measurement were started. The experiment was conducted under a light-dark cycle environment in which the light period started at 9 (ZT0) and the dark period started at 21 (ZT12).
The test compound (compound of Example 40) (10 nmol; dissolved in 5% chromophore-containing saline) (5 μl) was injected at ZT6 into the lateral cerebral ventricle of wild-type mice under isoflurane anesthesia through cannula by using a microsyringe pump at a flow rate of 0.5 μl/min, and electroencephalogram and electromyogram was measured thereafter. The administration was started with 5% chromophore-containing saline (Vehicle) as a control, and then the test compound was administered. […]

[3] = target: T2, human OX1R (Homo sapiens, UniProt O43613); test: Agonist activity against OX1R: intracellular calcium (Fura-2AM, FDSS7000) in CHOOX1R cells; assay type: cell-based; details: for Emax at 0.1 µM / Emax at 1 µM / Emax at 10 µM: read-out: Response (%) OX1R
T2 construct: expressed in transfected cells; host or cells: CHO (Chinese hamster ovary) cells, line CHOOX1R, co-expressing NFAT-luciferase
T2 sequence (O43613 1-425): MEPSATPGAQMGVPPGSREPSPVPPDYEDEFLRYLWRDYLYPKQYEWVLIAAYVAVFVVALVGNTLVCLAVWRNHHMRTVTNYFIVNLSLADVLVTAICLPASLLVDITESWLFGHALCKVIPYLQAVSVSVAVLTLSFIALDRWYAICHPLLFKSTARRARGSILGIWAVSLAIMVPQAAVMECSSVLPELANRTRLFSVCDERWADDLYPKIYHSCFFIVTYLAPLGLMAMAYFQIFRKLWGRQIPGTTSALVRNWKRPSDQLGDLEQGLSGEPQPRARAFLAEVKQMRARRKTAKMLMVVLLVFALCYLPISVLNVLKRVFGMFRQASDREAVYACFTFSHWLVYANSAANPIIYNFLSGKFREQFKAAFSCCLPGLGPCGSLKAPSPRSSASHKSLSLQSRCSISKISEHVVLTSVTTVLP
Summary of the method: as §1

[4] = test compound 0.1 μM, relative to orexin-A as full agonist (100%)
[5] = test compound 1.0 μM, relative to orexin-A as full agonist (100%)
[6] = test compound 10 μM, relative to orexin-A as full agonist (100%)

Response (%) OX2R ([1]; 0.1 μM test compound) [%] | Response (%) OX2R ([1]; 1.0 μM test compound) [%] | Response (%) OX2R ([1]; 10 μM test compound) [%] | Emax at 0.1 µM ([3]; 0.1 μM test compound, relative to orexin-A as full agonist (100%)) [%] | Emax at 1 µM ([3]; 1.0 μM test compound, relative to orexin-A as full agonist (100%)) [%] | Emax at 10 µM ([3]; 10 μM test compound, relative to orexin-A as full agonist (100%)) [%] | Response (%) OX2R ([1]; test compound 0.1 μM) [%] | Response (%) OX2R ([1]; test compound 1.0 μM) [%] | Response (%) OX2R ([1]; test compound 10 μM) [%] | Response (%) OX1R [3, 4] [%] | Response (%) OX1R [3, 5] [%] | Response (%) OX1R [3, 6] [%] | Compound | conscious time compared to Vehicle administration [2] | Emax at 0.1 µM [3] [%] | Emax at 1 µM [3] [%] | Emax at 10 µM [3] [%]
– | – | – | – | – | – | 64 | 99 | 106 | <5 | <5 | 6 | COc1ccc(-c2cccc(C(=O)N(C)C)c2)cc1S(=O)(=O)Nc1cccc(N2CCN(c3cccc(N(C)C)c3)C2=O)c1 [Example 130] | – | – | – | –
– | – | – | – | – | – | 43 | 96 | 101 | <5 | <5 | 18 | COc1ccc(-c2cccc(C(=O)N(C)C)c2)cc1S(=O)(=O)Nc1cccc(N2CCN(c3ccc(N(C)C)cc3)C2=O)c1 [Example 131] | – | – | – | –
– | – | – | – | – | – | 101 | 76 | 75 | 9 | 13 | 84 | COc1ccc(-c2cccc(C(=O)N(C)C)c2)cc1S(=O)(=O)Nc1cccc(N2CCCN(c3cccc(N(C)C)c3)C2=O)c1 [Example 134] | – | – | – | –
– | – | – | – | – | – | 94 | 66 | 64 | 8 | 14 | 83 | COc1ccc(-c2cccc(C(=O)N(C)C)c2)cc1S(=O)(=O)Nc1cccc(N2CCCN(c3ccc(N(C)C)cc3)C2=O)c1 [Example 135] | – | – | – | –
– | – | – | – | – | – | 144 | 97 | 94 | <5 | 78 | 110 | COc1ccc(-c2cccc(C(=O)N(C)C)c2)cc1S(=O)(=O)Nc1cccc(N2CCCCN(c3cccc(N(C)C)c3)C2=O)c1 [Example 136] | – | – | – | –

The next lines start with the compound.

Compound | Response (%) OX2R ([1]; 0.1 μM test compound) [%] | Response (%) OX2R ([1]; 1.0 μM test compound) [%] | Response (%) OX2R ([1]; 10 μM test compound) [%] | Emax at 0.1 µM ([3]; 0.1 μM test compound, relative to orexin-A as full agonist (100%)) [%] | Emax at 1 µM ([3]; 1.0 μM test compound, relative to orexin-A as full agonist (100%)) [%] | Emax at 10 µM ([3]; 10 μM test compound, relative to orexin-A as full agonist (100%)) [%] | Response (%) OX2R ([1]; test compound 0.1 μM) [%] | Response (%) OX2R ([1]; test compound 1.0 μM) [%] | Response (%) OX2R ([1]; test compound 10 μM) [%] | Response (%) OX1R [3, 4] [%] | Response (%) OX1R [3, 5] [%] | Response (%) OX1R [3, 6] [%] | conscious time compared to Vehicle administration [2] | Emax at 0.1 µM [3] [%] | Emax at 1 µM [3] [%] | Emax at 10 µM [3] [%]
COc1ccc(-c2cccc(C(=O)N(C)C)c2)cc1S(=O)(=O)Nc1cccc(NC(=O)Nc2cccc(N(C)C)c2)c1 [Example 40, 3′-(N-(3-(3-(3-(dimethylamino)phenyl)ureido)phenyl)sulfamoyl)-4′-methoxy-N,N-dimethyl-[1,1′-biphenyl]-3-carboxamide] | 77 | 60 | 52 | < 5 | < 5 | < 5 | – | – | – | – | – | – | increased | – | – | –
COc1ccc(-c2cccc(C(=O)N(C)C)c2)cc1S(=O)(=O)Nc1cccc(N(C)C(=O)N(C)c2cccc(N(C)C)c2)c1 [Example 126, 3′-(N-(3-(3-(3-(dimethylamino)phenyl)-1,3-dimethylureido)phenyl)sulfamoyl)-4′-methoxy-N,N-dimethyl-[1,1′-biphenyl]-3-carboxamide] | – | – | – | – | – | – | 7 | 37 | 85 | – | – | – | – | 5 | 5 | < 5
COc1ccc(-c2cccc(C(=O)N(C)C)c2)cc1S(=O)(=O)Nc1cccc(NC(=O)N(C)c2cccc(N(C)C)c2)c1 [Example 127, 3′-(N-(3-(3-(3-(dimethylamino)phenyl)-3-methylureido)phenyl)sulfamoyl)-4′-methoxy-N,N-dimethyl-[1,1′-biphenyl]-3-carboxamide] | – | – | – | – | – | – | 106 | 90 | 73 | – | – | – | – | < 5 | 7 | 56
COc1ccc(-c2cccc(C(=O)N(C)C)c2)cc1S(=O)(=O)Nc1cccc(N2CCN(c3ccccc3)C2=O)c1 [Example 128, 4′-methoxy-N,N-dimethyl-3′-(N-(3-(2-oxo-3-phenylimidazolidin-1-yl)phenyl)sulfamoyl)-[1,1′-biphenyl]-3-carboxamide] | – | – | – | – | – | – | 10 | 77 | 105 | – | – | – | – | < 5 | < 5 | 6
COc1ccc(-c2cccc(C(=O)N(C)C)c2)cc1S(=O)(=O)Nc1cccc(N2CCN(c3ccccc3N(C)C)C2=O)c1 [Example 129] | – | – | – | – | – | – | 85 | 93 | 92 | <5 | 41 | 81 | – | – | – | –
COc1ccc(-c2cccc(C(=O)N(C)C)c2)cc1S(=O)(=O)Nc1cccc(N2CCCN(c3ccccc3)C2=O)c1 [Example 132] | – | – | – | – | – | – | 42 | 100 | 101 | <5 | <5 | 46 | – | – | – | –
COc1ccc(-c2cccc(C(=O)N(C)C)c2)cc1S(=O)(=O)Nc1cccc(N2CCCN(c3ccccc3N(C)C)C2=O)c1 [Example 133] | – | – | – | – | – | – | 107 | 81 | 72 | 25 | 86 | 84 | – | – | – | –
